Measurements reported in BigSolDB 2.1.

CCCCN(CCCC)CC(O)c1cc(Cl)cc2c1-c1ccc(Cl)cc1/C2=C/c1ccc(Cl)cc1 (stereo not given)
solubility (mole fraction)
Settings | 278.15 K | 283.15 K | 288.15 K | 293.15 K | 298.15 K | 303.15 K | 308.15 K | 313.15 K | 318.15 K | 323.15 K
in ethanol | 5.32e-05 | 7.11e-05 | 9.63e-05 | 0.000127 | 0.000158 | 0.000213 | 0.000265 | 0.000323 | 0.000401 | 0.000497
in ethyl acetate | 0.00178 | 0.00233 | 0.00315 | 0.00409 | 0.00538 | 0.0069 | 0.009 | 0.0116 | 0.0151 | 0.0201
in methanol | 1.34e-05 | 1.7e-05 | 2.27e-05 | 3.03e-05 | 3.81e-05 | 4.95e-05 | 6.28e-05 | 8.17e-05 | 0.000105 | 0.000136
in methyl acetate | 0.000656 | 0.000903 | 0.00136 | 0.00186 | 0.00262 | 0.00364 | 0.00495 | 0.00669 | 0.00913 | 0.0126
in n-butanol | 0.000137 | 0.000182 | 0.000281 | 0.00038 | 0.000493 | 0.00065 | 0.000851 | 0.00115 | 0.00147 | 0.00187
in n-butyl acetate | 0.00423 | 0.00531 | 0.00672 | 0.00864 | 0.0108 | 0.0137 | 0.0175 | 0.0223 | 0.0285 | 0.0359
in n-heptanol | 0.000337 | 0.000437 | 0.000586 | 0.000781 | 0.0011 | 0.00149 | 0.00193 | 0.00245 | 0.00339 | 0.0045
in n-hexanol | 0.00021 | 0.000315 | 0.000477 | 0.000604 | 0.000886 | 0.00119 | 0.00171 | 0.00214 | 0.00289 | 0.00387
in n-octanol | 0.000352 | 0.000474 | 0.00073 | 0.000945 | 0.00125 | 0.00172 | 0.00221 | 0.00298 | 0.00385 | 0.00516
in n-pentanol | 0.000215 | 0.00028 | 0.000423 | 0.000555 | 0.000745 | 0.000968 | 0.0013 | 0.0017 | 0.0022 | 0.00288
in n-pentyl acetate | 0.00474 | 0.00654 | 0.00846 | 0.011 | 0.0137 | 0.0168 | 0.0211 | 0.0252 | 0.0326 | 0.0406
in n-propanol | 8.62e-05 | 0.000107 | 0.000145 | 0.00021 | 0.000279 | 0.000388 | 0.000502 | 0.000696 | 0.000967 | 0.00131
in n-propyl acetate | 0.00281 | 0.00365 | 0.00485 | 0.00653 | 0.00838 | 0.0109 | 0.0139 | 0.018 | 0.0231 | 0.0304
